Assay results: patent publication US20250243245A1 (priority 2022, published 2025)
Where a SMILES comes first, the peptide text is derived from it.

Test system: E. coli strain BL21
Conditions: BL21, 24 h

N=C(N)NCCC[C@H](NC(=O)[C@H](Cc1c[nH]c2ccccc12)NC(=O)[C@H](Cc1c[nH]c2ccccc12)NC(=O)[C@H](CCCNC(=N)N)NC(=O)[C@H](Cc1c[nH]c2ccccc12)NC(=O)[C@H](Cc1c[nH]c2ccccc12)NC(=O)[C@H](CCCNC(=N)N)NC(=O)[C@@H](N)CCCNC(=N)N)C(=O)O [Peptide 8P-1, reference compound] (H-RRWWRWWR-OH; N-terminus and C-terminus assumed)
MIC: >20 mM

CC[C@H](C)[C@H](NC(=O)[C@H](CC(N)=O)NC(=O)[C@H](CCCNC(=N)N)NC(=O)[C@H](CCC(N)=O)NC(=O)[C@H](Cc1c[nH]c2ccccc12)NC(=O)[C@H](CCC(N)=O)NC(=O)[C@@H](N)Cc1ccccc1)C(=O)N[C@@H](CCCNC(=N)N)C(=O)N[C@@H](CCCCN)C(=O)N[C@H](C(=O)N[C@@H](CCCNC(=N)N)C(=O)O)C(C)C [Peptide 11P-2, FQWORNIRKVR, reference compound] (H-FQWQRNIRKVR-OH)
MIC: >20 mM

CC[C@H](C)[C@H](N)C(=O)N[C@@H](CCC(=O)O)C(=O)N[C@@H](CCCNC(=N)N)C(=O)N[C@@H](CO)C(=O)N[C@H](C(=O)N[C@@H](CC(N)=O)C(=O)N[C@@H](CC(C)C)C(=O)N[C@@H](CC(=O)O)C(=O)N[C@@H](Cc1c[nH]c2ccccc12)C(=O)N[C@@H](Cc1ccc(O)cc1)C(=O)N[C@@H](CCCCN)C(=O)NCC(=O)N1CCC[C@H]1C(=O)N[C@H](C(=O)N[C@@H](CC(C)C)C(=O)N[C@@H](CC(C)C)C(=O)O)[C@@H](C)O)[C@@H](C)O [Peptide 16P-1, reference compound] (H-IERSTNLDWYKGPTLL-OH; N-terminus and C-terminus assumed)
MIC: >20 mM

CC[C@H](C)[C@H](NC(=O)[C@H](CCCNC(=N)N)NC(=O)[C@H](CCCNC(=N)N)NC(=O)[C@H](CCC(N)=O)NC(=O)[C@H](Cc1c[nH]c2ccccc12)NC(=O)[C@H](Cc1ccccc1)NC(=O)CNC(=O)[C@@H]1CCCN1C(=O)[C@H](CO)NC(=O)CNC(=O)[C@H](Cc1ccc(O)cc1)NC(=O)CNC(=O)[C@H](CO)NC(=O)CNC(=O)[C@H](CCCNC(=N)N)NC(=O)[C@H](Cc1c[nH]c2ccccc12)NC(=O)[C@H](Cc1c[nH]c2ccccc12)NC(=O)[C@H](CCCNC(=N)N)NC(=O)[C@H](Cc1c[nH]c2ccccc12)NC(=O)[C@H](Cc1c[nH]c2ccccc12)NC(=O)[C@H](CCCNC(=N)N)NC(=O)[C@@H](N)CCCNC(=N)N)C(=O)N[C@@H](CCCNC(=N)N)C(=O)N[C@@H](CCCNC(=N)N)C(=O)N[C@@H](Cc1c[nH]c2ccccc12)C(=O)N[C@@H](CCCNC(=N)N)C(=O)N[C@@H](CCCNC(=N)N)C(=O)O [Peptide 27P-1] (H-RRWWRWWRGSGYGSPGFWQRRIRRWRR-OH; N-terminus and C-terminus assumed)
MIC: >20 mM

CC[C@H](C)[C@H](NC(=O)[C@H](CCCNC(=N)N)NC(=O)[C@H](CCCNC(=N)N)NC(=O)[C@H](CCC(N)=O)NC(=O)[C@H](Cc1c[nH]c2ccccc12)NC(=O)[C@@H](N)Cc1ccccc1)C(=O)N[C@@H](CCCNC(=N)N)C(=O)N[C@@H](CCCNC(=N)N)C(=O)N[C@@H](Cc1c[nH]c2ccccc12)C(=O)N[C@@H](CCCNC(=N)N)C(=O)N[C@@H](CCCNC(=N)N)C(=O)NCC(=O)N[C@@H](CO)C(=O)NCC(=O)N[C@@H](Cc1ccc(O)cc1)C(=O)NCC(=O)N[C@@H](CO)C(=O)N1CCC[C@H]1C(=O)NCC(=O)N[C@@H](CCCNC(=N)N)C(=O)N[C@@H](CCCNC(=N)N)C(=O)N[C@@H](Cc1c[nH]c2ccccc12)C(=O)N[C@@H](Cc1c[nH]c2ccccc12)C(=O)N[C@@H](CCCNC(=N)N)C(=O)N[C@@H](Cc1c[nH]c2ccccc12)C(=O)N[C@@H](Cc1c[nH]c2ccccc12)C(=O)N[C@@H](CCCNC(=N)N)C(=O)O [Peptide 27P-2] (H-FWQRRIRRWRRGSGYGSPGRRWWRWWR-OH; N-terminus and C-terminus assumed)
MIC: 5 to 10 mM

CC[C@H](C)[C@H](NC(=O)[C@H](CCCCN)NC(=O)[C@H](CC(C)C)NC(=O)[C@@H](NC(=O)[C@H](CCCCN)NC(=O)[C@H](CCCNC(=N)N)NC(=O)[C@H](C)NC(=O)[C@@H]1CCCN1C(=O)[C@H](CCCCN)NC(=O)[C@@H](N)CCCNC(=N)N)C(C)C)C(=O)N[C@@H](CC(C)C)C(=O)NCC(=O)N[C@@H](CCCNC(=N)N)C(=O)NCC(=O)N[C@@H](CO)C(=O)N[C@@H](CCC(=O)O)C(=O)N[C@@H](Cc1ccccc1)C(=O)N[C@@H](Cc1c[nH]c2ccccc12)C(=O)N[C@@H](CCC(N)=O)C(=O)N[C@@H](CCCCN)C(=O)N[C@@H](CCCNC(=N)N)C(=O)N[C@H](C(=O)N[C@@H](CCCNC(=N)N)C(=O)N[C@@H](CCCNC(=N)N)C(=O)N[C@@H](Cc1c[nH]c2ccccc12)C(=O)N[C@@H](CCCNC(=N)N)C(=O)N[C@@H](CCCNC(=N)N)C(=O)O)C(C)C [Peptide 27P-3] (H-RKPARKVLKILGRGSEFWQKRVRRWRR-OH; N-terminus and C-terminus assumed)
MIC: 10 to 20 mM

CC[C@H](C)[C@H](NC(=O)[C@H](CCCCN)NC(=O)[C@H](CC(C)C)NC(=O)[C@@H](NC(=O)[C@H](CCCCN)NC(=O)[C@H](CCCCN)NC(=O)[C@@H](NC(=O)[C@H](CC(C)C)NC(=O)[C@H](CCCCN)NC(=O)[C@@H](N)CCCCN)[C@@H](C)CC)[C@@H](C)CC)C(=O)N[C@@H](CC(C)C)C(=O)NCC(=O)N[C@@H](CO)C(=O)NCC(=O)N[C@@H](Cc1ccc(O)cc1)C(=O)NCC(=O)N[C@@H](CO)C(=O)N1CCC[C@H]1C(=O)NCC(=O)N[C@@H](Cc1ccccc1)C(=O)N[C@@H](Cc1c[nH]c2ccccc12)C(=O)N[C@@H](CCC(N)=O)C(=O)N[C@@H](CCCNC(=N)N)C(=O)N[C@@H](CCCNC(=N)N)C(=O)N[C@H](C(=O)N[C@@H](CCCNC(=N)N)C(=O)N[C@@H](CCCNC(=N)N)C(=O)N[C@@H](Cc1c[nH]c2ccccc12)C(=O)N[C@@H](CCCNC(=N)N)C(=O)N[C@@H](CCCNC(=N)N)C(=O)O)[C@@H](C)CC [Peptide 30P-1]
MIC: 1.25 to 2.5 mM

CC[C@H](C)[C@H](NC(=O)[C@H](CCCCN)NC(=O)[C@H](CC(C)C)NC(=O)[C@@H](NC(=O)[C@H](CCCCN)NC(=O)[C@H](CCCCN)NC(=O)[C@@H](NC(=O)[C@H](CC(C)C)NC(=O)[C@H](CCCCN)NC(=O)[C@H](CCCCN)NC(=O)CNC(=O)[C@@H]1CCCN1C(=O)[C@H](CO)NC(=O)CNC(=O)[C@H](Cc1ccc(O)cc1)NC(=O)CNC(=O)[C@H](CO)NC(=O)CNC(=O)[C@H](CCCNC(=N)N)NC(=O)[C@H](CCCNC(=N)N)NC(=O)[C@H](Cc1c[nH]c2ccccc12)NC(=O)[C@H](CCCNC(=N)N)NC(=O)[C@H](CCCNC(=N)N)NC(=O)[C@@H](NC(=O)[C@H](CCCNC(=N)N)NC(=O)[C@H](CCCNC(=N)N)NC(=O)[C@H](CCC(N)=O)NC(=O)[C@H](Cc1c[nH]c2ccccc12)NC(=O)[C@@H](N)Cc1ccccc1)[C@@H](C)CC)[C@@H](C)CC)[C@@H](C)CC)C(=O)N[C@@H](CC(C)C)C(=O)O [Peptide 30P-2] (H-FWQRRIRRWRRGSGYGSPGKKLIKKILKIL-OH; N-terminus and C-terminus assumed)
MIC: 1.25 to 2.5 mM
